Data on 7 compounds can be found in article PMC3942006, “Ruthenium-Nitrosyl Complexes with Glycine, L-Alanine, L-Valine, L-Proline, D-Proline, L-Serine, L-Threonine, and L-Tyrosine: Synthesis, X-ray Diffraction Structures, Spectroscopic and Electrochemical Properties, and Antiproliferative Activity” (Inorganic Chemistry, 2014).

Series [1] deals with A549 (human nonsmall cell lung cancer) cells. Briefly: MTT assay, antiproliferative activity in A549 cells. It is filed as cell-based. Conditions: exposure time 96 h, means ± SD. From the text:
(§1) CH1 cells (human ovarian carcinoma) were a generous gift from Lloyd R. Kelland, CRC Centre for Cancer Therapeutics, Institute of Cancer Research, Sutton, UK. SW480 (human adenocarcinoma of the colon) and A549 (human nonsmall cell lung cancer) cells were kindly provided by Brigitte Marian (Institute of Cancer Research, Department of Medicine I, Medical University of Vienna, Austria). All cell culture media and reagents were purchased from Sigma-Aldrich Austria and plastic ware from Starlab Germany. Cells were grown in 75 cm^2 culture flasks as adherent monolayer cultures in minimum essential medium (MEM) supplemented with 10% heat-inactivated fetal calf serum, 1 mM sodium pyruvate, 4 mM L-glutamine, and 1% nonessential amino acids (from 100× ready-to-use stock). Cultures were maintained at 310 K in humidified atmosphere containing 95% air and 5% CO2.
(§2) Cytotoxic effects of the test compounds were determined by means of a colorimetric microculture assay [MTT assay; MTT = 3-(4,5-dimethyl-2-thiazolyl)-2,5-diphenyl-2H-tetrazolium bromide] as described previously.[13] Cells were harvested from culture flasks by trypsinization and seeded by using a pipetting system (Biotek Precision XS Microplate Sample Processor) in densities of 1 × 10^3 (CH1), 2 × 10^3 (SW480), and 3 × 10^3 (A549) in 100 μL/well aliquots in 96-well microculture plates. For 24 h, cells were allowed to settle and resume proliferation. […] After 96 h of drug exposure, the medium was replaced with 100 μL/well of a 1:7 MTT/RPMI 1640 mixture (MTT solution, 5 mg/mL of MTT reagent in phosphate-buffered saline; RPMI 1640 medium, supplemented with 10% heat-inactivated fetal bovine serum and 4 mM L-glutamine), and plates were incubated for further 4 h at 310 K. Subsequently, the solution was removed from all wells, and the formazan crystals formed by viable cells were dissolved in 150 μL of DMSO per well. Optical densities at 550 nm were measured with a microplate reader (Biotek ELx808) by using a reference wavelength of 690 nm to correct for unspecific absorption. The quantity of viable cells was expressed relative to untreated controls, and 50% inhibitory concentrations (IC50) were calculated from concentration-effect curves by interpolation. Evaluation is based on means from three independent experiments.
For orientation: Formazan colour is commonly taken as a measure of viable cells.

In series [2] the test system is SW480 (human adenocarcinoma of the colon) cells. As to the kind of experiment: MTT assay, antiproliferative activity in SW480 cells. It is filed as cell-based. Conditions: for IC50: MTT assay, exposure time 96 h, means ± SD; for more active than the respective osmium analogue: SW480 cells.
Excerpt: as §1, §2

The subject of series [3] is CH1 cells (human ovarian carcinoma). Briefly: MTT assay, antiproliferative activity in CH1 cells. It is filed as cell-based. Conditions: for IC50: MTT assay, exposure time 96 h, means ± SD; for more active than the respective osmium analogue: CH1 cells.
Excerpt: as §1, §2

Series [4] can be described thus: log D7.4 by shake-flask method, n-octanol/buffered aqueous solution. It is filed as physicochemical. As to conditions: for log D7.4 in the presence of 0.1 M KCl: n-octanol/0.02 M HEPES pH 7.4, 0.1 M KCl, T = 298.0 K; for log D7.4: n-octanol/0.02 M HEPES pH 7.4, T = 298.0 K. As for the experimental part: ^1H NMR spectra were recorded on a Bruker Avance III instrument (Ultrashiled Magnet) at 500.13 MHz at room temperature. DMSO-d6 was used as a solvent. Standard pulse programs were applied. ^1H chemical shifts were measured relative to the residual solvent peaks. […] Complex concentration was 1.0 mM. Watergate water suppression program and 4,4-dimethyl-4-silapentane-1-sulfonic acid (DSS) internal standard were used. ATR-IR spectra were measured on a Bruker Vertex spectrometer. D7.4 values were determined by the traditional shake-flask method in n-octanol/buffered aqueous solution at pH 7.4 (N-(2-hydroxyethyl)piperazine-N′-ethanesulfonic acid (HEPES) buffer) and 298.0 ± 0.2 K, as described previously.[25] In the case of the complexes of L-Ala (2) and L-Val (3) the D7.4 values were determined in the presence of 0.1 M KCl as well. Two parallel experiments were performed for each sample. The complexes were dissolved at 0.3 mM in the n-octanol presaturated aqueous solution of the buffer (0.02 M). The aqueous solutions and n-octanol with 1:1 phase ratio were gently mixed with 360° vertical rotation for 3 h to avoid emulsion formation, and the mixtures were centrifuged at 5000 rpm for 3 min by a temperature-controlled centrifuge at 298 K. After separation, UV spectra of the complexes in the aqueous phase were compared to those of the original aqueous solutions, and D7.4 values were calculated as the mean of [absorbance (original solution)/absorbance (aqueous phase after separation) – 1] obtained in the region of λ ≈ (250–290 nm). Circular dichroism (CD) and UV–vis spectra under physiological conditions (0.02 M phosphate buffer, pH 7.40 with 0.1 M KCl) were recorded on a Jasco J-815 spectrometer in an optical cell of 2 cm path length (l) in the wavelength range from 220 to 600 nm. The analytical concentration for the CD measurement of the complexes was 400 μM in aqueous solution. CD data are given as the differences in molar absorptivities between left and right circularly polarized light, based on the concentration of the […] (Δε = ΔA/l/ccomplex). The concentrations for the UV–vis measurements amounted to 403 (1), 401 (4), 401 (5), 400 (8), 399 (3), 401 (2), 403 (7), and 401 (6) μM.
The log D7.4 values of the complexes were determined by the traditional shake-flask method in n-octanol/buffered aqueous solution at pH 7.4 by analysis of the UV–vis spectra of the aqueous phases before and after separation (Supporting Information, Figure S10 and Table 5).

Series [5] is described as follows: Aqueous stability by ESI mass spectrometry. As to conditions: 50 μM in water, 310 K, over 24 h. It is filed as physicochemical. The procedure: (§3) The stability of four compounds, namely 1, 4, 5, and 8, in aqueous solution and in the presence of 4 equiv of sodium ascorbate was investigated using an AmaZon SL ESI ion trap mass spectrometer (Bruker Daltonics GmbH, Bremen, Germany). For this purpose, the compounds were diluted from 400 μM stock solution (1% DMSO) to 50 μM in water and in the presence of 200 μM sodium ascorbate. The solutions were incubated at 310 K in the dark, and samples were measured after 0.5, 1, 2, 6, and 24 h after a second dilution step to 5 μM of the metal compound. The samples were introduced by direct infusion into the mass spectrometer at 280 μL/h, and mass spectra were recorded over 0.5 min and averaged. Typical experimental conditions were as follows: high voltage (HV) capillary ±4.5 kV, dry temp 180 °C, nebulizer 8 psi, dry gas 6 L/min, radio frequency (RF) level 77%, trap drive 57.6, average accumulation time 25 ms (negative ion mode) and 120 μs (positive ion mode). […]
(§4) The aqueous stability of compounds 1, 4, 5, and 8 was also confirmed by ESI mass spectrometry. […] Dissolution of 1 in D2O leads to the change of the labile −NH2 to −ND2, and the resulting compound [RuCl3(N,N-d2-Gly−H)(NO)] ^– (m/z 314.74 compared to m/z 312.72 of 1) was analyzed. […] Note that related ruthenium-nitrosyl complexes with azole heterocycles reacted quantitatively with sodium ascorbate within several hours.[15]

Series [6] is described as follows: Co-incubation with sodium ascorbate followed by ESI mass spectrometry. As to conditions: 4 equiv sodium ascorbate (200 μM), 310 K, over 24 h. The class given is physicochemical. The procedure: as §3, §4
A short description of series [7]: Stability in aqueous solution by UV-vis spectroscopy. As to conditions: pH 7.40, 0.02 M HEPES, 0.25 mM, 298.0 K, in the presence of 0.1 M KCl or in its absence. The class given is physicochemical.
Series [8] can be described thus: Hydrolytic stability by 1H NMR spectroscopy. It is filed as physicochemical. As to conditions: 10% D2O/H2O, pH = 5.86, compared with pH 7.4 buffer. As for the experimental part: ^1H NMR spectra were recorded on a Bruker Avance III instrument (Ultrashiled Magnet) at 500.13 MHz at room temperature. DMSO-d6 was used as a solvent. Standard pulse programs were applied. ^1H chemical shifts were measured relative to the residual solvent peaks. […] Complex concentration was 1.0 mM. Watergate water suppression program and 4,4-dimethyl-4-silapentane-1-sulfonic acid (DSS) internal standard were used. ATR-IR spectra were measured on a Bruker Vertex spectrometer. D7.4 values were determined by the traditional shake-flask method in n-octanol/buffered aqueous solution at pH 7.4 (N-(2-hydroxyethyl)piperazine-N′-ethanesulfonic acid (HEPES) buffer) and 298.0 ± 0.2 K, as described previously.[25] In the case of the complexes of L-Ala (2) and L-Val (3) the D7.4 values were determined in the presence of 0.1 M KCl as well. […] The aqueous solutions and n-octanol with 1:1 phase ratio were gently mixed with 360° vertical rotation for 3 h to avoid emulsion formation, and the mixtures were centrifuged at 5000 rpm for 3 min by a temperature-controlled centrifuge at 298 K. After separation, UV spectra of the complexes in the aqueous phase were compared to those of the original aqueous solutions, and D7.4 values were calculated as the mean of [absorbance (original solution)/absorbance (aqueous phase after separation) – 1] obtained in the region of λ ≈ (250–290 nm). […]

A word on the IC50: it is the concentration that gives 50% inhibition. For (nBu4N)[RuCl3(L-Val–H)(NO)] [complex 3], the IC50 was more than 320 µM in series [1], 53 ± 2 µM in series [2] and 27 ± 3 µM in series [3]. The “log D7.4 in the presence of 0.1 M KCl” value in series [4] is reported as “–1.31 ± 0.07”. Moreover, the “log D7.4” value in series [4] was “–1.13 ± 0.02”.

On to `CCCC[N+](CCCC)(CCCC)CCCC.C[C@@H](O)[C@@H]1[NH2+][Ru-2]([Cl])([Cl])([Cl])([N]=O)[O]C1=O` [complex 7, (nBu4N)[RuCl3(L-Thr–H)(NO)]], for which the results for the IC50 in series [1], in series [2] and in series [3] were more than 320 µM, 71 ± 15 µM and 23 ± 2 µM, respectively. Moreover, the “log D7.4” value in series [4] is given as “–1.75 ± 0.02”.

In the case of `CCCC[N+](CCCC)(CCCC)CCCC.O=[N][Ru-2]1([Cl])([Cl])([Cl])[NH2+][C@@H](Cc2ccc(O)cc2)C(=O)[O]1` [complex 8, (nBu4N)[RuCl3(L-Tyr–H)(NO)]], in series [5], the “aqueous stability, species in negative ion mode ESI mass spectra” value is “[RuCl3(AA–H)NO]^− as the major species”. Also, the IC50 in series [1] was more than 320 µM; in series [2], 38 ± 12 µM; in series [3], 17 ± 3 µM. Also, the “ligand release on incubation with sodium ascorbate” value in series [6] was “did not induce ligand release”. Moreover, in series [7], the “hydrolysis over 24 h (absorbance at 250 nm)” value was “negligible”. For the same compound, the “hydrolytic stability: 1H NMR in nonbuffered medium” value in series [8] is “showed the same NMR spectra”.

As for `CCCC[N+](CCCC)(CCCC)CCCC.O=[N][Ru-2]1([Cl])([Cl])([Cl])[NH2+][C@@H](CO)C(=O)[O]1` [complex 6, (nBu4N)[RuCl3(L-Ser–H)(NO)]], the values for the IC50 in series [1], in series [2] and in series [3] were more than 320 µM, 63 ± 10 µM and 13 ± 2 µM, respectively. Moreover, in series [4], the “log D7.4” value is “–1.77 ± 0.12”.

Regarding (nBu4N)[RuCl3(D-Pro–H)(NO)] [complex 5], the “more active than the respective osmium analogue” value was found to be 14 fold in series [2] and 11 fold in series [3].

For (nBu4N)[RuCl3(L-Pro–H)(NO)] [complex 4], the “more active than the respective osmium analogue” value was determined as 4.4 fold in series [2] and 5.7 fold in series [3].

As to `CCCC[N+](CCCC)(CCCC)CCCC.C[C@@H]1[NH2+][Ru-2]([Cl])([Cl])([Cl])([N]=O)[O]C1=O` [complex 2, (nBu4N)[RuCl3(L-Ala–H)(NO)]], the IC50 in series [1] was more than 320 µM; in series [2] it was 47 ± 3 µM; in series [3], 12 ± 2 µM. Moreover, in series [4], the “log D7.4 in the presence of 0.1 M KCl” value is reported as “–1.47 ± 0.11”. For the same compound, in series [4], the “log D7.4” value is listed as “–1.63 ± 0.08”.
